Measured values taken from US11155580B2, “Modified proteins and methods of use thereof” (YALE UNIVERSITY, priority 2013, dated 2021).
Entries after “also recorded” stand apart in the source; their conditions may differ. Where a SMILES comes first, the peptide text is derived from it. Where no end group is shown, it is not given here. The star is where a group is joined. X1 = CCN(CC)c1ccc2c(-c3ccc(S(=O)(=O)*)cc3S(=O)(=O)[O-])c3ccc(=[N+](CC)CC)cc-3oc2c1; rhodamine = not defined here

Columns and labels:
HeLa cells [1] = assay: Colocalization with Alexa-488-transferrin (Tf488), live cell confocal microscopy; type: cell-based; conditions: 1 μM, 30 min
Description: To examine the colocalization of rhodamine labeled miniature proteins or peptides with Alexa-488-transferrin (Tf488), HeLa cells were plated (200 μl, 10^4 cells/well, 96 well glass bottom plates, Matrical) the day prior to experiments. The media was replaced with 150 μL Hepes-Krebs-Ringer's (HKR) buffer (140 mM NaCl, 2 mM KCl, 1 mM CaCl2, 1 mM MgCl2, 10 mM Hepes pH 7.4) containing 1 μM miniature protein or 25 nM Alexa-488-transferrin (Molecular Probes) and the cells incubated at 37° C. for 30 min. The cells were then rinsed twice with 200 μL, HKR buffer and nuclei were labeled by overlaying 200 μL HKR containing 300 nM Hoechst 33342 (Molecular Probes Cat. # H3570) for 5 minutes. Images of cells were acquired using a PerkinElmer LiveView spinning disk confocal microscope fitted with a 60×1.2 NA objective. Colocalization with Rab-GFP fusions was examined in an analogous way using HeLa cells transfected with the appropriate expression plasmid.
Colocalization between rhodamine and fluorescein labeled miniature proteins and peptides, or between rhodamine labeled miniature proteins and markers of endocytosis was completed using confocal microscopy. Live cell confocal microscopy was conducted using a PerkinElmer LiveView spinning disk confocal microscope fitted with heated microscope enclosure (maintained at 37° C.), a 60×1.2 NA objective, laser illumination, a Nipkow CSU-1× spinning disk, and a Hammamatsu CS9100 EMCCD camera operated using Velocity software. Alexafluor-488-transferrin was detected using a 488 nm laser and a 520 nm long pass filter; tetraethylrhodamine and Alexafluor-546-transferrin were detected using a 546 nm laser line and a 580 nm long pass filter, Hoescht 33342 was detected using a 405 nm laser line and a 450 nm long pass filter. Images were processed for presentation by using the ‘subtract background’ option and linear contrast adjustments in Image J. All adjustments were applied uniformly to the entire image. Colocalization analysis was performed using the JACOP plugin (Bolte and Cordelières, 2006), available on the ImageJ website. The fraction of rhodamine signal overlapping with EGFP signal (R E G) was calculated using Mander's coefficient and automatic thresholding. Pearson's correlation coefficient (R) was also obtained using the JACOP plugin.

HeLa cells [2] = assay: Effects of endocytosis inhibitors on cell uptake, confocal microscopy; type: cell-based; conditions: 1 μM rhodamine labeled, 30 min, 37° C.; for effect of EIPA on uptake: 50 μM EIPA; for effect of dynasore on uptake: 80 μM dynasore; for effect of MβCD on uptake: 5 mM MβCD
Description: HeLa cells grown for 24 h in glass bottom plates were incubated with HKR buffer, or HKR buffer containing 80 μM dynasore, 50 μM N-ethyl-isopropyl-amiloride, or 5 mM methyl-β-cyclodextrin for 30 min at 37° C. prior to the addition of 1 μM rhodamine-labeled miniature protein or peptide (Tat (SEQ ID NO:67) and Arg8 (SEQ ID NO:68)). The cells were washed twice with DMEM, the nuclei labeled with Hoescht, and images acquired as described above for colocalization experiments.

HeLa cells [3] = assay: Peptide degradation in HeLa cells, HPLC of whole cell lysates; type: in vitro ADME; conditions: 1 μM, 30 min, RIPA lysate
Description: Approximately 200,000 HeLa cells were treated with rhodamine labeled cationic miniature proteins and peptides as described for experiments using flow cytometry to measure peptide uptake. These cells were pelleted in 96 well microtitre plates (300 g, 3 min) and lysed in 40 μL RIPA buffer (150 mM NaCl, 50 mM Tris pH 7.4, 50 mM EDTA pH 7.4, 0.1% SDS, 1% Triton X-100) on ice for 30 min. The insoluble material was cleared from the cell lysate via centrifugation (10,000 g, 10 min) and 20 μL of the supernatant was diluted into 400 μL of 15% CH3CN in water. These samples were analyzed via reverse phase HPLC (Shimadzu Instruments) fitted with a fluorescence detector and a C18 column (Poroshell 120 SB-C18, 2.7 μm, 100 mm×3 mm ID, Agilent).

HeLa cells [4] = assay: HPLC analysis of cytosolic extracts prepared with streptolysin O; type: cell-based; conditions: HeLa cells treated with rhodamine labeled molecule
Description: To generate cytosolic extracts, HeLa cells were treated with streptolysin O (SLO), a well characterized bacterial toxin that creates pores in the plasma membranes of target cells (Walev et al., 2002, FASEB 16:237-239). […] Moreover, when the toxin is added to cultured cells at 4° C. and washed with PBS before raising the temperature to 37° C., pores are created only in the plasma membrane and the release of ER, golgi, or endolysosomal contents are avoided (Androlewicz et al., 1993, Proc Natl Acad Sci USA 90:9130-9134).
First, selective release of the cytoplasmic contents of HeLa cells using the published procedures was verified. HeLa cells were treated with 20 μg/mL SLO in PBS containing 5 mM DTT (20 min, 4° C.), washed (three PBS washes, 150 μL each), resuspended in PBS, and incubated at 37° C. for 15 min, after which 1.5 μM propidium iodide (PI), a marker of permeabilized cell membranes, was added.

cathepsin B = cathepsin B (Homo sapiens, UniProt P07858); assay: Resistance to acid proteases: cathepsin B; type: in vitro ADME; conditions: 50 pmol, 30 min, 37° C., pH 5
Description: (§1) 50 pmol aPPR, 5.2R, 5.3R, ZF5.3R, TatR (SEQ ID NO:67), or Arg8R (SEQ ID NO:68) were incubated with 5 pg cathepsin B, D, or L for 30 min at 37° C. in 10 μL of 20 mM sodium phosphate buffer (pH 5) containing 150 mM NaCl. At the end of the incubation, the reaction was stopped by adding 40 μL of a solution containing a 84:15:1 ratio of water:EtOH:TFA before analysis by HPLC.

cathepsin D = cathepsin D (Homo sapiens, UniProt P07339); assay: Resistance to acid proteases: cathepsin D; type: in vitro ADME; conditions: 50 pmol, 30 min, 37° C., pH 5
Sequence of cathepsin D (P07339 65-412, species assumed): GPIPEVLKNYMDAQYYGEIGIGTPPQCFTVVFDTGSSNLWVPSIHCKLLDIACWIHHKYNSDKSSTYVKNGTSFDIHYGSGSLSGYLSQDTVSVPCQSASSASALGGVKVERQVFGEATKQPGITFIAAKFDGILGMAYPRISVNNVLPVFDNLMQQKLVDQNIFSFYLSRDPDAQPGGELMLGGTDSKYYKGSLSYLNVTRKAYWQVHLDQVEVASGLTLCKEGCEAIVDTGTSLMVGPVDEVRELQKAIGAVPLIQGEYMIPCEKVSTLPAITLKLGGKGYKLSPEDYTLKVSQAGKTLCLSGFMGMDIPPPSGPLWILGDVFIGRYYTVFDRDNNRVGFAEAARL
Description: as §1

cathepsin L = cathepsin L (Homo sapiens, UniProt P07711); assay: Resistance to acid proteases: cathepsin L; type: in vitro ADME; conditions: 50 pmol, 30 min, 37° C., pH 5
Sequence of cathepsin L (P07711 114-333, species assumed): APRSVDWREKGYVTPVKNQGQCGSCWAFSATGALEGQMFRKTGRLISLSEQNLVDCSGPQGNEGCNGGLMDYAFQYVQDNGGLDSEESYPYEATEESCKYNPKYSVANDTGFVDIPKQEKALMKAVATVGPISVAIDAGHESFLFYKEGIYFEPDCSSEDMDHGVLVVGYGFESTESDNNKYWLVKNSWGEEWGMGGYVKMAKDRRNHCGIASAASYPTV
Description: as §1

[5] = Circular dichroism thermal melt; type: physicochemical; conditions: unlabeled, 25 μM in PBS
Description: FIG. 8, comprising FIGS. 8A-8C, depicts the results of circular dichroism (CD) analysis of miniature proteins studied herein. (FIG. 8A) Wavelength dependent CD spectra of miniature proteins at 25 μM concentration in PBS at 37° C. (FIG. 8B) Temperature dependent ellipticity at 222 nm of miniature proteins at 25 μM.
CD spectra of unlabeled aPP-based miniature were recorded from samples containing 25 μM peptide in PBS as described (Luedtke et al., 2007, Nat Chem Biol. 3:779-784). CD spectra of ZF and ZF5.3 in the presence and absence of Zn2+ were recorded from solutions of peptide (12.5-25 μM) dissolved in 10 mM argon-purged Tris-HCL (pH 8.0) in the presence or absence of 0.5 mM dithiothreitol and 2 eq. ZnC12. Samples were incubated for 30 min at RT and analyzed on a Jasco J-810-150S spectropolarimeter. Final plots show background-normalized averages of six scans.

GR★-GFP = assay: GIGT, transient transfection with GR★-GFP; type: cell-based; conditions: 500 nM, 30 min, HeLa cells
Description: Cells were plated (10,000 cells/well) onto 96-well glass bottom plates (Matrical Bioscience, #MGB096-1-2-LG-L) in full DMEM (HeLa) or full McCoy's 5A (U205) media and allowed to adhere overnight. […] Cells were allowed to transfect for 6 h at 37° C. under 5% CO2 before removing transfection media and replenishing growth media. Image analysis of GIGT using Cell Profiler. Cell image files were loaded into a customizable CellProfiler7 ‘pipeline’ as individual GFP (green) and Hoechst (blue) channels, and converted to grayscale. Nuclei were identified and segmented from the gray Hoechst channel based on Otsu three-class thresholding, with pixels in the middle intensity class assigned to background. Clumped objects were individually distinguished using ‘Laplacian of Gaussian’ modeling and separated by ‘shape’. […] The ratio of mean intensities of the nuclear region divided by the cytosolic region of the GFP image was measured for every cell examined, and 40-80 transfected cells from 15-25 images were acquired for each treatment.
Cells were allowed to incubate in the presence of ligand for 30 min at 37° C. under 5% CO2. […] Fluorescence illumination was initiated using an EXFO X-cite Series 120 Hg arc lamp. […] Fluorescence intensities of individual cells were quantified using the image analysis algorithm CellProfiler.

[6] = test system: HeLa cervical cancer cells; assay: Internal peptide concentration after co-administration with ZF 5.3; type: cell-based
Description: HeLa cervical cancer cells were incubated in the presence of either 500 nM ZF 4.3-Rhodamine or 500 nM ZF 4.3-Rhodamine with 1 μM ZF 5.3 for 30 minutes. After incubation, external peptide was removed and internal peptide concentration was measured using a microscope with advanced correlation and detection hardware. In the absence of ZF 5.3, only a small amount of ZF 4.3 enters the cell interior, corresponding to ˜8% of the ZF 4.3 concentration added (FIG. 19). In the presence of ZF 5.3, the amount of ZF 4.3 that enters the cell interior quadrupled, raising to ˜35% of the concentration added (FIG. 19).

[7] = Trafficking of a biologically active peptide (NBD) into the cytosol; type: cell-based; conditions: 500 nM NBD fusions
Description: Cells were incubated in the presence of either 500 nM ZF 5.3-NBD or Antp-NBD or Arg8-NBD (FIG. 20). After incubation, internal peptide concentration was measured.

CC[C@H](C)[C@H](NC(=O)[C@H](CC(C)C)NC(=O)[C@H](CC(=O)O)NC(=O)[C@H](CCCNC(=N)N)NC(=O)[C@@H](NC(=O)[C@@H]1CCCN1C(=O)[C@H](C)NC(=O)[C@H](CC(=O)O)NC(=O)[C@H](CC(=O)O)NC(=O)CNC(=O)[C@@H]1CCCN1C(=O)[C@H](Cc1ccc(O)cc1)NC(=O)[C@@H](NC(=O)[C@@H]1CCCN1C(=O)[C@H](CCC(N)=O)NC(=O)[C@H](CO)NC(=O)[C@@H]1CCCN1C(=O)CNC(=O)[C@@H](N)CCCCNS(=O)(=O)c1ccc(-c2c3ccc(=[N+](CC)CC)cc-3oc3cc(N(CC)CC)ccc23)c(S(=O)(=O)[O-])c1)[C@@H](C)O)C(C)C)C(=O)N[C@@H](CCCNC(=N)N)C(=O)N[C@@H](Cc1ccccc1)C(=O)N[C@@H](Cc1ccc(O)cc1)C(=O)N[C@@H](CCCNC(=N)N)C(=O)N[C@@H](CC(=O)O)C(=O)N[C@@H](CC(C)C)C(=O)N[C@@H](CCCNC(=N)N)C(=O)N[C@@H](CCCNC(=N)N)C(=O)N[C@@H](Cc1ccc(O)cc1)C(=O)N[C@@H](CC(C)C)C(=O)N[C@@H](CC(N)=O)C(=O)N[C@H](C(=O)N[C@H](C(=O)N[C@H](C(=O)N[C@@H](CCCNC(=N)N)C(=O)N[C@@H](Cc1c[nH]cn1)C(=O)N[C@@H](CCCNC(=N)N)C(=O)N[C@@H](Cc1ccc(O)cc1)C(N)=O)[C@@H](C)O)C(C)C)C(C)C [5.3R] (H-K(X1)GPSQPTYPGDDAPVRDLIRFYRDLRRYLNVVTRHRY-NH2)
intracellular red fluorescent signal (HeLa cells [1]): red fluorescent puncta throughout the cytosol
effect of EIPA on uptake (HeLa cells [2]): dramatically reduced the uptake
effect of dynasore on uptake (HeLa cells [2]): completely blocked the uptake
effect of MβCD on uptake (HeLa cells [2]): completely blocked the uptake
degradation during incubation with HeLa cells (HPLC of whole cell lysates) (HeLa cells [3]): minimal to no cleavage; also recorded: virtually identical to control samples
material found in SLO cytoplasmic extracts (HPLC) (HeLa cells [4]): presence of intact 5.3R; also recorded: a single peak with the same retention time as the starting material
degradation by cathepsin B (HPLC) (cathepsin B): several additional small peaks
degradation by cathepsin D (HPLC) (cathepsin D): cleaved by cathepsin D
metabolised at 0.5 h (cathepsin D; isolated enzyme cathepsin other, read-out: disappearance after incubation with cathepsin D): ~50%
degradation by cathepsin L (HPLC) (cathepsin L): traces identical to the parent peptide; also recorded: to a smaller extent

GPSQPTYPGDDAPVRDLRRFYRDLRRYLNVVTRHRYC^acetyl-NH2 (GPSQPTYPGDDAPVRDLRRFYRDLRRYLNVVTRHRYC(Ac)-NH2) [6.3]
Tm (temperature dependent ellipticity at 222 nm) [5]: 33 °C

K^DexGPSQPTYPGDDAPVRDLIRPYRDLQRPLRVVTRHRY (K(dexamethasone)GPSQPTYPGDDAPVRDLIRPYRDLQRPLRVVTRHRY-NH2) [5.2-P2Dex]
translocation ratio (TR), GR★-GFP (GR★-GFP): 1.35±0.11

K^DexGPSQPTYPGDDAPVRDLIRPYRDLRRPLNVVTRHRY (K(dexamethasone)GPSQPTYPGDDAPVRDLIRPYRDLRRPLNVVTRHRY-NH2) [5.3-P2Dex]
translocation ratio (TR), GR★-GFP (GR★-GFP): 1.64±0.27

K^RhodGRKKRRQRRRPPQY-NH2 (K(rhodamine)GRKKRRQRRRPPQY-NH2; reading uncertain; also: printed as K^RhodGRKKRRQRRRPPQY-NH2) [TatR]
intracellular red fluorescent signal (HeLa cells [1]): red fluorescent puncta throughout the cytosol
effect of EIPA on uptake (HeLa cells [2]): dramatically reduced the uptake
effect of dynasore on uptake (HeLa cells [2]): completely blocked the uptake
effect of MβCD on uptake (HeLa cells [2]): completely blocked the uptake
degradation during incubation with HeLa cells (HPLC of whole cell lysates) (HeLa cells [3]): numerous additional peaks
material found in SLO cytoplasmic extracts (HPLC) (HeLa cells [4]): retention times distinct from the starting material; also recorded: little or no material with the same retention time as the starting material
degradation by cathepsin B (HPLC) (cathepsin B): little or no degradation
degradation by cathepsin D (HPLC) (cathepsin D): little or no degradation
degradation by cathepsin L (HPLC) (cathepsin L): little or no degradation

RRRRRRRR [Arg8]
intracellular concentration on co-incubation with ZF 5.3 [6]: did not significantly increase

WYSCNVCGKAFVLSRHLNRHLRVHRRAT [ZF5.3]
trafficking a biologically active peptide into the cytosol [7]: superior to both Antp and Arg8
